Measured values from publication PMC9014859 (Journal of Medicinal Chemistry, 2022).
Entries after “also recorded” stand apart in the source; their conditions may differ. One block for each molecule: values may come before it.

Experiments:
physchem = conditions: solubility (mg/mL), PBS, 5% DMSO, room temperature, 3 h
in vitro [1] = conditions: plasma
[2] = system: CYP1A2, 2B6, 2C8, 2C9, 2C19, 2D6, 3A4 (value spans the isoforms); assay: in vitro; conditions: human
[3] = target: T1, Human FL NPR-C (27–541)-10His-Flag (Homo sapiens, UniProt P17342); assay: Surface plasmon resonance; conditions: SPR, affinity model, 1:1 binding; for Kd: KD (μM)
T1 sequence (P17342 27-541): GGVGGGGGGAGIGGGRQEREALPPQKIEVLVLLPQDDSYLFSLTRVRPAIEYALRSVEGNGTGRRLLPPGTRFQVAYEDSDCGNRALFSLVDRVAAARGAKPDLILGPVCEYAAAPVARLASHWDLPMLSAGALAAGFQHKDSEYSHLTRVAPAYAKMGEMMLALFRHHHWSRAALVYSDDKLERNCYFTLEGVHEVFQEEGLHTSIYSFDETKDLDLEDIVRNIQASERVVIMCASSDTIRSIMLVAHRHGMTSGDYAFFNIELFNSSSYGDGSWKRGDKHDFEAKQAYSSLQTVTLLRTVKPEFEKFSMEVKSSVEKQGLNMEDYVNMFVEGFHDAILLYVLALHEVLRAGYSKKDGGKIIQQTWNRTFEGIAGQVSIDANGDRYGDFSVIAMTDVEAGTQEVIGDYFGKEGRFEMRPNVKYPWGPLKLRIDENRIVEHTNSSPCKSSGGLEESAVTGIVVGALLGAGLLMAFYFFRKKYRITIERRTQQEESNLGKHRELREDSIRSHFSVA

[4] = target: T2, NPR-C extracellular domains (Homo sapiens, UniProt P17342); assay: Fluorescence polarization; type: binding; conditions: competition against fluorescent P19 probe
T2 sequence (P17342 27-481): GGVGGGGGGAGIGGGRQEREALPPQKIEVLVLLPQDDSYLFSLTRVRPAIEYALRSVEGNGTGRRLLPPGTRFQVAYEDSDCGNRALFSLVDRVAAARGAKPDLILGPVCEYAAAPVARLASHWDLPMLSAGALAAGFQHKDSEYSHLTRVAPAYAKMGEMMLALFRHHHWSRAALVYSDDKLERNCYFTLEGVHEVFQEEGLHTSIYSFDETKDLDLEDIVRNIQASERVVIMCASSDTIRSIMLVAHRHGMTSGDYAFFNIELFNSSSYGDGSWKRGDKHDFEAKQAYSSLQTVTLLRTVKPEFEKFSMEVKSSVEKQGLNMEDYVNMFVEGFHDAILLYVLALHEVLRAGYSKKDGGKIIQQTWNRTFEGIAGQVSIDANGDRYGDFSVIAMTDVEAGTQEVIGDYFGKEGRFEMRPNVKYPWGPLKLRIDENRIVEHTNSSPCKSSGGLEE

[5] = pH 7.4
[6] = system: Rat small mesenteric artery
[7] = system: Mouse small mesenteric artery (NPR-C KO)
in vitro [8] = conditions: PAMPA, pH 7.4, PAMPA Papp (cm/S × 10^–6)
in vitro [9] = conditions: male, Sprague-Dawley, rat, hepatocytes
[10] = system: CYP isoforms 1A2, 2B6, 2C8, 2C9, 2C19, 2D6, 3A4; assay: in vitro; conditions: human
[11] = target: T3, Human NPR-C in HeLa cells (Homo sapiens, UniProt P17342); assay: Inhibition of forskolin-induced cAMP production in HeLa cells; conditions: 100 μM compound, forskolin 10 μM
T3 sequence (P17342 27-541): T1 sequence (P17342 27-541)

Compound: CC(=O)Nc1ccc(Nc2ncnc(NC(C)(C)C(=O)OC(C)(C)C)n2)cc1 [Compound 38, tert-Butyl 2-((4-((4-Acetamidophenyl)amino)-1,3,5-triazin-2-yl)amino)-2-methylpropanoate]
KD (μM) [3]: did not meet the minimum binding threshold

Compound: CC(=O)Nc1ccc(Nc2ncnc(N[C@@H](Cc3ccc(O)cc3)C(=O)OC(C)(C)C)n2)cc1 [Compound 42, tert-Butyl (4-((4-Acetamidophenyl)amino)-1,3,5-triazin-2-yl)-L-tyrosinate]
KD (μM) [3]: did not meet the minimum binding threshold

Compound: CC(=O)Nc1ccc(Nc2ncnc(N[C@H](CC(C)C)C(=O)OC(C)(C)C)n2)cc1 [Compound 34, tert-Butyl (4-((4-Acetamidophenyl)amino)-1,3,5-triazin-2-yl)-D-leucinate]
KD (μM) [3]: failing to pass the preliminary binding screen

Compound: CC(C)C[C@H](Nc1nc(Cl)nc(Nc2ccc(NC(=O)c3ccccc3)cc2)n1)C(=O)OC(C)(C)C [Compound 22, tert-Butyl (4-((4-Benzamidophenyl)amino)-6-chloro-1,3,5-triazin-2-yl)-L-leucinate]
KD (μM) [3]: poor binding profile; also recorded: Rmax>>theoretical

Compound: CC(=O)Nc1ccc(Nc2ncnc(NCC(=O)OC(C)(C)C)n2)cc1 [Compound 36, tert-Butyl (4-((4-Acetamidophenyl)amino)-1,3,5-triazin-2-yl)glycinate]
PAMPA Papp (cm/S × 10^–6) [5]: < 1

Compound: CC(=O)Nc1ccc(Nc2ncnc(NCCC(=O)OC(C)(C)C)n2)cc1 [Compound 1, tert-Butyl 3-((4-((4-Acetamidophenyl)amino)-1,3,5-triazin-2-yl)amino)propanoate]
FP EC50 (μM) [4]: Low % binding | reduction in potency (EC50 value) when treated with M372049 ([6]; rat SMA): 10 fold | reduction in potency (EC50 value) when treated with osteocrin ([6]; rat SMA): 2.5 fold | reduction in potency in NPR-C KO tissue ([7]; mouse SMA, KO vs wild-type): 6.4 fold | EC50 [2]: > 50 µM

Compound: CC(=O)Nc1ccc(Nc2ncnc(N[C@@H](C)C(=O)OC(C)(C)C)n2)cc1 [Compound 39, tert-Butyl (4-((4-Acetamidophenyl)amino)-1,3,5-triazin-2-yl)-L-alaninate]
KD (μM) [3]: did not meet the minimum binding threshold

Further lines, with some results ahead:

solubility (physchem): > 70 µg/mL | fraction unbound (in vitro [1]): 0.15 | EC50 [2]: > 50 µM
Compound: CC(=O)Nc1ccc(Nc2ncnc(N[C@@H](CC(C)C)C(=O)O)n2)cc1 [Compound 27, (4-((4-Acetamidophenyl)amino)-1,3,5-triazin-2-yl)-L-leucine]

Kd [3]: 29.6 ± 4.5 µM | FP EC50 (μM) [4]: Inactive
Compound: CC(=O)Nc1ccc(Nc2ncnc(N[C@H](CC(=O)OC(C)(C)C)Cc3ccccc3)n2)cc1 [Compound 44, tert-Butyl (S)-3-((4-((4-Acetamidophenyl)amino)-1,3,5-triazin-2-yl)amino)-4-phenylbutanoate]

Rat small mesenteric artery EC50+NPR-C inhibitor (M372049) ± SEM (μM) ([6]; vasorelaxation, with M372049 (10 μM)): maintained their activity | Mouse small mesenteric artery NPR-C KO EC50 ± SEM (μM) ([7]; vasorelaxation, NPR-C knockout): maintained their activity | solubility (physchem): > 70 µg/mL | Papp (in vitro [8]): < 1 ×10⁻⁶ cm/s | Papp (in vitro [8]; pH 7.4, 5 h, room temperature): < 0.023 ×10⁻⁶ cm/s | hepatocyte CLint (in vitro [9]): < 6.4 µL/min/1e6 cells | half-life (in vitro [9]; hepatocyte (rat) T1/2 (min), 1 μM test compound): > 3.33 h | fraction unbound (in vitro [1]; Sprague-Dawley, human and rat): < 0.005 | EC50 [10]: 4.96 to 37.8 µM
Compound: COC(=O)[C@H](CC(C)C)Nc1nc(Cl)nc(N[C@H]2CC[C@H](Nc3nc(Cl)nc(N[C@@H](CC(C)C)C(=O)OC)n3)CC2)n1 [Compound 17, Dimethyl 2,2′-(((((1r,4r)-Cyclohexane-1,4-diyl)bis(azanediyl))bis(6-chloro-1,3,5-triazine-4,2-diyl))bis(azanediyl))bis(4-methylpentanoate)]
inhibition of cAMP formation [11]: inhibition trend that did not reach statistical significance

Kd [3]: 144 ± 7.7 µM
Compound: CON(C)C(=O)[C@H](CC(C)C)Nc1ncnc(Nc2ccc(NC(C)=O)cc2)n1 [Compound 32, (S)-2-((4-((4-Acetamidophenyl)amino)-1,3,5-triazin-2-yl)amino)-N-methoxy-N,4-dimethylpentanamide]

FP EC50 (μM) [4]: Inactive
Compound: CC(=O)Nc1ccc(Nc2ncnc(N[C@@H](CC(C)C)C(=O)OC(C)(C)C)n2)cc1 [Compound 26, tert-Butyl (4-((4-Acetamidophenyl)amino)-1,3,5-triazin-2-yl)-L-leucinate]
inhibition of cAMP formation [11]: inhibition trend that did not reach statistical significance
